What was measured:
[1] = test system: vaccinia virus; type: cell-based
[2] = test system: poliovirus 1; type: cell-based
[3] = test system: influenza A/H1N1; type: cell-based
[4] = test system: human parainfluenza 3 virus (HPIV3); test: antiviral testing against human parainfluenza 3 virus; type: cell-based; conditions: commercially available preparation; 100 ng/mL-100 μg/mL
[5] = test system: herpes simplex virus-1; type: cell-based
[6] = at 1-100 μg/mL

| SMILES | anti-viral activity against vaccinia virus [1] | anti-viral activity against poliovirus Sabin-1 [2] | anti-viral activity against influenza A/California/July/2009 (H1N1) [3] | anti-viral activity against parainfluenza virus-3 [4] | anti-viral activity against herpes simplex virus-1 [5] | influenza A/H1N1 inhibition by hemagglutination read-out [3] | toxicity [6] | anti-viral activity against vaccinia virus (in words) [1] |
| --- | --- | --- | --- | --- | --- | --- | --- | --- |
| COc1cc(C=CC(=O)O)cc(OC)c1O (stereo in doubt) [sinapinic acid] | None of the compounds showed anti-viral activity | None of the compounds showed anti-viral activity | None of the compounds showed anti-viral activity | None of the compounds showed anti-viral activity | None of the compounds showed anti-viral activity | – | – | – |
| CCOC(=O)C1=C[C@@H](OC(CC)CC)[C@H](NC(C)=O)[C@@H](N)C1 [Tamiflu] | – | – | – | – | – | effective viral inhibition | – | – |
| Oc1cc(O)c2c(c1)O[C@@]1(c3ccc(O)c(O)c3)Oc3cc(O)c4c(c3[C@@H]2[C@H]1O)O[C@H](c1ccc(O)c(O)c1)[C@H](O)C4 [procyanidin A2] | None of the compounds showed anti-viral activity | None of the compounds showed anti-viral activity | None of the compounds showed anti-viral activity | None of the compounds showed anti-viral activity | None of the compounds showed anti-viral activity | – | – | – |
| O=c1c(O[C@@H]2O[C@H](CO)[C@H](O)[C@H](O)[C@H]2O)c(-c2cc(O)c(O)c(O)c2)oc2cc(O)cc(O)c12 [myricetin-beta-3-galactoside] | None of the compounds showed anti-viral activity | None of the compounds showed anti-viral activity | None of the compounds showed anti-viral activity | None of the compounds showed anti-viral activity | None of the compounds showed anti-viral activity | – | – | – |
| CC(C)[C@]12O[C@H]1[C@@H]1O[C@]13[C@]1(O[C@H]1C[C@H]1C4=C(CC[C@@]13C)C(=O)OC4)[C@@H]2O [triptolide] | None of the compounds showed anti-viral activity | None of the compounds showed anti-viral activity | None of the compounds showed anti-viral activity | None of the compounds showed anti-viral activity | None of the compounds showed anti-viral activity | – | toxic | – |
| O=c1c(O[C@@H]2O[C@H](CO)[C@H](O)[C@H](O)[C@H]2O)c(-c2ccc(O)c(O)c2)oc2cc(O)cc(O)c12 [quercetin-β-3-galactoside] | – | – | – | – | – | – | – | core) was found to be inactive. |
